Data reported in US20070213312A1, “Hif-1 Inhibitors and Methods of Use Thereof” (priority 2003, published 2007).
Residues, ends and D or L forms follow the SMILES beside them. *: point of attachment. Cbz = O=C(OCc1ccccc1)*

Assays:
[1] = system: HIF-1α; assay: HIF-1α detection in cells exposed to DBM plus metals (summary statements); assay type: cell-based, human; settings: cells exposed to DBM plus the metal; HEK 293 and HT144 for Zn^2+
From the text: In subsequent studies, similar data has been found for HEK 293 human embryonic kidney cells and HT144 melanoma cells treated with either DBM or Zn^2+. […] This finding appears to be unique to the combination of DBM with Zn^2+ since it was not observed in cells exposed to DBM plus other metals such as Fe^3+, Co^2+, Cd^2+, and Ni^2+. Furthermore, this unexpected reversal of the independent effects of DBM and Zn^2+ was not blocked by hypoxia. These observations are counterintuitive since inhibitors of HIF P4H should impede degradation of HIF-1α. Also, these two HIF P4H inhibitors appear to work in concert under inhibitory conditions to down-regulate HIF-1α with little effect on HIF-1α mRNA levels.
Basal levels of HIF-1α are low in cells exposed to ambient oxygen, yet under these conditions both DBM and Zn^2+ stabilize HIF-1α and cause the accumulation of HIF-1α protein (FIG. 15). It has been shown that this stabilizing effect on HIF-1α was itself reversed by the concomitant addition of Zn^2+ to DBM under ambient oxygen. […] This destabilizing effect appears unique to the combination of DBM plus Zn^2+ since it was not observed with other metals known to form chelates with DBM such as Fe^3+, Co^2+, Cd^2+ and Ni^2+. […] Though assessment of downstream effectors of HIF-1α (e.g., VEGF) was not included in the preliminary data, the effects of DBM and cobalt on VEGF in LNCaP human prostate cancer cells have been previously reported.

[2] = system: HIF-1α; settings: LNCaP cells, ambient O2; cited from earlier work
[3] = system: VEGF; settings: LNCaP cells, ambient O2; cited from earlier work
[4] = system: HIF-1α; assay: Western blot analysis of HIF-1α in HEK 293 cells under ambient oxygen (normoxia); assay type: cell-based, human; settings: HEK 293, ambient oxygen; for HIF-1α levels by Western blot: 1 hr, DBM 100 μM, Zn^2+ 25 μM to 100 μM, alone or combined; for HIF-1α by Western blot: agent(s) without further addition; for HIF-1α by Western blot in the presence of proteosome inhibitor MG-132: MG-132 added to the agent(s)
Procedure: The first unexpected finding was that the combination of DBM plus Zn^2+ reversed the induced stabilization of HIF-1α observed when the cells were exposed to either DBM or Zn^2+ alone under normoxic conditions (FIG. 15). […] HIF-1α was not detected at baseline by Western blot (FIG. 15, lane 1).
Proteosomal degradation of HIF-1α was assessed in HEK 293 embryonic kidney cells treated with DBM alone, Zn^2+ alone or the combination under ambient oxygen in the presence or absence of the proteosome inhibitor MG-132 (FIG. 18). […] (FIG. 18, lane 5). […] The HIF-1α isoforms are more clearly resolved on the gel from FIG. 18 than FIG. 15. This may be due to differences in the time the gels were run.

[5] = system: HIF-1α; assay: Western blot analysis of HIF-1α in HT144 melanoma cells under hypoxia (1% O2); assay type: cell-based, human; settings: for HIF-1α levels by Western blot: HT 144 melanoma cells, 2 hours under 1% O2
Procedure: (§1) HT 144 melanoma cells (FIG. 16 (A)) and HEK 293 embryonic kidney cells (FIG. 16 (B)) were incubated for 2 hours under 1% O2. HIF-1α was detected by Western blot at baseline ([…] lane 1).

[6] = system: HIF-1α mRNA; assay: Semiquantitative PCR (RT-PCR) of HIF-1α mRNA in HEK 293 cells under normoxia; assay type: cell-based, human; settings: HEK 293, normoxia, 2 hours, serum free media
Procedure: The effects of DBM alone, Zn^2+ alone and DBM plus Zn^2+ on HIF-1α mRNA levels were assessed by semiquantitative PCR in extracts of HEK 293 kidney cells under normoxia for 2 hours in serum free media (FIG. 17). […] HIF-1αZ mRNA levels were not found to be increased (data not shown).

[7] = system: HIF-1α; assay: Western blot analysis of HIF-1α in HEK 293 cells under hypoxia (1% O2); assay type: cell-based, human; settings: 2 hours under 1% O2, metal added together with DBM
Procedure: as §1

[8] = system: HIF-1α; assay: Western blot analysis of HIF-1α in VHL (−/−) RCC-4 renal cell carcinoma cells under normoxia; assay type: cell-based, human; settings: RCC-4 VHL (−/−), normoxic conditions; MG-132 for 1 hour
From the text: As expected, HIF-1α was detected by Western blot under normoxic conditions (FIG. 19, lane 1). […] These experiments have not been performed as yet in RCC4 cells with DBM alone or in RCC4 cells transfected with pVHL.

[9] = system: HIF-1αZ; settings: cited from earlier work
[10] = system: kidney cancer; settings: patients with metastatic disease, high doses; cited from earlier work

In the case of [Cd+2] [Cd^2+], the “Loss of HIF-1α (no HIF-1α detected) when metal is combined with DBM” value (from here on “Loss of HIF-1α (no HIF-1α detected)”) [1] was “not observed”.

In the case of [Co+2] [Co^2+, reference compound], the “Loss of HIF-1α (no HIF-1α detected)” value [1] is given as “not observed”, the HIF-1α levels [2] is given as “rapidly increase” and the VEGF levels [3] is given as “rapidly increase”.

With O=C(CC(=O)c1ccccc1)c1ccccc1 [DBM, 1,3-diphenylpropane-1,3-dione] the “HIF-1α levels by Western blot” value [4] was “significant increase in HIF-1α levels”, the “HIF-1α by Western blot” value ([4]; 2 hours) was “readily detected” and the “HIF-1α by Western blot in the presence of proteosome inhibitor MG-132” value [4] was “did not stabilize these other forms of HIF-1α”. The “HIF-1α levels by Western blot” value [5] was “significantly increased the levels of HIF-1α”, the “HIF-1α mRNA levels by semiquantitative PCR” value [6] was “not significantly different from baseline” and the HIF-1α levels [2] was “rapidly increase”. For the same compound, the VEGF levels [3] was “rapidly increase”.

In the case of [Fe+3] [Fe^3+], the “Effect of metal added to DBM on HIF-1α levels by Western blot” value ([5]; HT 144 cells, 2 hours under 1% O2, metal added together with DBM) was “did not significantly alter the effect of DBM on HIF-1α levels”, the “Effect of metal added to DBM on HIF-1α levels by Western blot” value [7] was “decreased slower migrating isoforms of HIF-1α” and the “Loss of HIF-1α (no HIF-1α detected)” value [1] was “not observed”.

With CC(C)C[C@@H](C=O)NC(=O)[C@H](CC(C)C)NC(=O)[C@H](CC(C)C)NC(=O)OCc1ccccc1 [MG-132, reference compound] (Cbz-Leu-Leu-Leu-aldehyde) the “HIF-1α by Western blot” value ([4]; 2 hours) was “accumulation of a broad range of proteins that possibly represent ubiquitinated forms of HIF-1α” and the “HIF-1α by Western blot” value [8] was “Stabilization of HIF-1α was enhanced”.

For [Ni+2] [Ni^2+], the “Loss of HIF-1α (no HIF-1α detected)” value [1] was “not observed”.

With [Zn+2] [Zn^2+] the “HIF-1α levels by Western blot” value [4] was “increased HIF-1α levels in a dose dependent manner”, the “Molecular weight of stabilized HIF-1α isoforms” value ([4]; 2 hours) was “higher molecular weight than those induced by DBM” and the “HIF-1α by Western blot” value ([4]; 2 hours) was “readily detected”. The “HIF-1α by Western blot in the presence of proteosome inhibitor MG-132” value [4] was “did not stabilize these other forms of HIF-1α”, the “HIF-1α levels by Western blot” value [5] was “decreased the more rapidly migrating isoforms of HIF-1α” and the “HIF-1α mRNA levels by semiquantitative PCR” value [6] was “not significantly different from baseline”. For the same compound, the “Zn^2+ concentration at which HIF-1αZ exhibits loss of exon 12” value [9] was “above 100 μM”.

In the case of “bevacizumab: humanized monoclonal antibody specific for VEGF”, the Clinical responses [10] is given as “Clinical responses have been observed”.
